Experimental data as given in PMC2978906 (Cancer prevention research (Philadelphia, Pa.), 2010).
pIC50: −log10 of the molar value.

Molecular target: T1, estrogen receptor α (ER-α) (Homo sapiens, UniProt P03372)
T1 sequence (P03372 311-547 limits assumed): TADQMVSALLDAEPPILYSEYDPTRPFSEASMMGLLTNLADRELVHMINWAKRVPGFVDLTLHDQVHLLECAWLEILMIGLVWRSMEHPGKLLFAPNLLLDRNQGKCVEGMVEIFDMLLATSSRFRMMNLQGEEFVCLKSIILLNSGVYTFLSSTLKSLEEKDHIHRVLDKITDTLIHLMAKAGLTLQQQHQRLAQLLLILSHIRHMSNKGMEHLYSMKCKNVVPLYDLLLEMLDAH
Assay: LanthaScreen TR-FRET competitive binding assay

pIC50: 4.29
SMILES: CC(C)c1cc2c(c(O)c1O)[C@@]13CCCC(C)(C)[C@@H]1C[C@@H]2OC3=O [carnosol]
